Data reported in paper PMC11357446, “Searching for Novel HDAC6/Hsp90 Dual Inhibitors with Anti-Prostate Cancer Activity: In Silico Screening and In Vitro Evaluation” (Pharmaceuticals, 2024).

How the values were obtained:
[1] = test system: acetylated tubulin (Ac-Tub) in LNCaP cells; assay: Western blot of acetylated α-Tubulin in LNCaP cells; format: cell-based, human; details: 24 h at GI50 concentration, normalized with Tubulin
Experimental: (§1) To assess whether the observed antiproliferative activity of the selected compounds was a consequence of HDAC6-targeting, we examined the effect of the cell treatments on the expression levels of acetylated tubulin (Ac-Tub), a well-known HDAC6 target. LNCaP and PC-3 cells were treated with the tested compounds at their GI50 concentrations, and SDS-PAGE and western blot were performed. In addition, the acetylation levels of histone H3, which are mainly regulated by HDAC1, were also evaluated in order to exclude potential class I-HDAC off-target activities. We used Tubastatin-A and Geldanamycin as reference controls for cellular effects resulting from HDAC6- and Hsp90-inhibition, respectively. The results in Figure 2 show a significant increase in α-Tubulin acetylation in LNCaP cells after treatments with compounds 8, 11 and 18. Indeed, these compounds triggered a 2.9-, 5.1-, and 2.5-fold increase, respectively, compared to the control (DMSO). […].
Figure 2 Western blot analysis and relative quantification of the expression levels of acetylated-Tubulin (Ac-TUB), acetylated H3 (Ac-H3), and HSP70 in LNCaP (A,B) and PC-3 (C,D) cells treated for 24 h at GI50 concentration. Tubastatin-A was used as HDAC6-specific positive control, Geldanamycin (GELDA) as HSP90-specific positive control, and SAHA as pan-HDAC inhibitor. Protein expression was normalized with Tubulin levels (Ac-TUB and HSP70) or total H3 (Ac-H3). Quantification is reported as fold change in treated cells versus DMSO control (CTR), arbitrarily set at 1 (one sample t-test p-values: * p < 0.05, ** p < 0.01, *** p < 0.001, **** p < 0.0001; n = 3).
(§2) Cell treatment. PC-3 and LNCaP cells were grown in 12-well tissue-culture plates and treated with test compounds at the evaluated GI50 concentration for each candidate inhibitor for 24 h. DMSO was used as a negative control, while Tubastatin-A and Geldanamycin were used as positive controls for HDAC6 and Hsp90 inhibition, respectively. Vorinostat (SAHA) was used as a pan-HDACi control. […] Protein quantitation was performed with Pierce Detergent Compatible Bradford Assay (#23246, Thermo Fisher Scientific, MA, USA), and equivalent amounts of cellular extracts were resolved by SDS-PAGE, transferred to PVDF or Nitrocellulose membrane with Trans-Blot Turbo Transfer System (Bio-Rad, Hercules, CA, USA), and immunoblotted with the following primary antibodies, diluted 1:1000 in 1× TBS with 1 mg/mL BSA: Anti-Histone H3 (#PA5-16183, Invitrogen, Thermo Fisher Scientific, MA, USA), Anti-acetylated histone H3 (#sc-518011, Santa Cruz Biotechnology, Inc., Dallas, TX, USA), Anti-Tubulin (#E-AB-20073, Elabscience, Houston, TX, USA), Anti-acetylated α-tubulin (#sc-23950, Santa Cruz), and Anti-HSP70 (#4872S, Cell Signaling Technology, Inc., Danvers, MA, USA). […]

[2] = target: T1, HDAC6 recombinant enzyme (Homo sapiens, UniProt Q9UBN7); assay: Fluorimetric HDAC6 assay; format: biochemical; details: singlicate
T1 sequence (Q9UBN7 1-1215): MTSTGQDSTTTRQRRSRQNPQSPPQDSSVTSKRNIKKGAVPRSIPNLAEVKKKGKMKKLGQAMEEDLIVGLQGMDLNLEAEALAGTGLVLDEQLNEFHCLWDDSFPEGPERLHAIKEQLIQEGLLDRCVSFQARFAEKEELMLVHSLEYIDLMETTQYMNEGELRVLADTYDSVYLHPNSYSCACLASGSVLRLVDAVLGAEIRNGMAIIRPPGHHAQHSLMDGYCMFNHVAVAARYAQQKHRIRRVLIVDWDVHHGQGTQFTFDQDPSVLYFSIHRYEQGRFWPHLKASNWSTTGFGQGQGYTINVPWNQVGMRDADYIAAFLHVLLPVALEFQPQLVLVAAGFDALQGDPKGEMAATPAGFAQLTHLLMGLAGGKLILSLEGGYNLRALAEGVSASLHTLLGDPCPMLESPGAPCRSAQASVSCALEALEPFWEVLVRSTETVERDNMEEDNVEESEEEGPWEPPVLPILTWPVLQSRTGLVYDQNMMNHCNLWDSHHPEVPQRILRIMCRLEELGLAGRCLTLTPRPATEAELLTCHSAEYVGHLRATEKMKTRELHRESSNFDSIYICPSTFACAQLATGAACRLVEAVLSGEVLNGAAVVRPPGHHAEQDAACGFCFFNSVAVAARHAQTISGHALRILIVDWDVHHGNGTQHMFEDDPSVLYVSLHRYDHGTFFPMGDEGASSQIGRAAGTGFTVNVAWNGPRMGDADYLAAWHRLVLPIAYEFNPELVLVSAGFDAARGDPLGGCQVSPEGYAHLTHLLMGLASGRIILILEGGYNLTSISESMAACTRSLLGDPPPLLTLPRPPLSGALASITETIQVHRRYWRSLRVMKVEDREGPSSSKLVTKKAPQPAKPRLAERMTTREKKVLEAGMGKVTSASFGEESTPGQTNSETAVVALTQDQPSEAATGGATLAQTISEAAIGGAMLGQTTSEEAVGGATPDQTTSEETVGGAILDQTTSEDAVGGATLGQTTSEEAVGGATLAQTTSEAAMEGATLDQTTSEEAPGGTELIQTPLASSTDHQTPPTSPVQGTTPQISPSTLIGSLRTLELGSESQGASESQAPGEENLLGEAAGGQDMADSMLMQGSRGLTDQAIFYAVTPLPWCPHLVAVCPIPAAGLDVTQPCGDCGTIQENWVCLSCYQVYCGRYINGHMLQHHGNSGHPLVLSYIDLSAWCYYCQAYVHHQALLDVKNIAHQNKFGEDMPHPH
Experimental: In vitro assessments of compounds on the HDAC6 enzyme were performed, as described in our previous works. […] The blank employed for curve fitting was evaluated on a solution of the buffer containing a concentration of […] of DMSO. IC50 values were calculated by using the GraphPad Prism 4 program based on a sigmoidal dose–response equation.

[3] = test system: acetylated tubulin (Ac-Tub) in PC-3 cells; assay: Western blot of acetylated α-Tubulin in PC-3 cells; format: cell-based, human; details: 24 h at GI50 concentration, normalized with Tubulin
Experimental: as §1
Figure 2 Western blot analysis and relative quantification of the expression levels of acetylated-Tubulin (Ac-TUB), acetylated H3 (Ac-H3), and HSP70 in LNCaP (A,B) and PC-3 (C,D) cells treated for 24 h at GI50 concentration. […]
as §2, with “treatment.” for “treatment. PC-3 and LNCaP cells were grown in 12-well tissue-culture plates and treated with test compounds at the evaluated GI50 concentration for each candidate inhibitor for 24 h. DMSO was used as a negative control, while Tubastatin-A and Geldanamycin were used as positive controls for HDAC6 and Hsp90 inhibition, respectively. Vorinostat (SAHA) was used as a pan-HDACi control.”

IC50 [2]	α-Tubulin acetylation, fold induction versus DMSO control [3]	Compound	α-Tubulin acetylation, fold increase compared to the control (DMSO) [1]
6.5 µM	7.3 fold	O=C(c1cc(OCc2ccccc2)ccc1O)N1CCC(c2noc(C(F)(F)F)n2)CC1 [Compound 8]	2.9 fold
0.005 µM	5.5 fold	CC(C)[C@H](C(=O)NCc1ccc(C(=O)NO)cc1)N1Cc2ccccc2C1=O [Compound 11]	5.1 fold
2.7 µM	4.9 fold	O=C(Nc1ncccc1O)c1ccc(-c2noc(C(F)(F)F)n2)cc1 [Compound 18]	2.5 fold
